Reference: patent US20040024024A1, “Aromatic sulfone hydroxamates and their use as protease inhibitors” (priority 2001, published 2004)
“And” between values parts separate entries of the source, which are not always exact repeats. Identical values can stand only once. Counter-ions that a name gives are not always drawn.

Columns and labels:
Assay type in all cases: biochemical
Human recombinant MMP-13 = target: T1, Human recombinant MMP-13 (Homo sapiens, UniProt P45452); experiment: In vitro MMP inhibition, Ki determination (fluorogenic substrate II)
T1 construct: made in house; host or cells: baculovirus / insect cells
Description: (§1) Several hydroxamates and salts thereof were analyzed in in vitro assays to determine their ability to inhibit the MMP cleavage of peptide substrates. Inhibition (Ki) and IC50 constants were calculated from the assayed hydroxamate-MMP interactions.
(§2) Human recombinant MMP-1, MMP-2, MMP-9, MMP-13, and MMP-14 were used in this assay. All enzymes were prepared in Assignee's laboratories following usual laboratory procedures. Protocols for the preparation and use of these enzymes are available in the scientific literature. See, e.g., Enzyme Nomenclature (Academic Press, San Diego, Calif., 1992) (and the citations therein). See also, Frije et al., J. Biol. Chem., 26(24), 16766-73 (1994).
The expressed proenzyme was first purified over a heparin agarose column, and then over a chelating zinc chloride column. The proenzyme was then activated by APMA for use in the assay. Further details on baculovirus expression systems may be found in, for example, Luckow et al., J. Virol., 67, 4566-79 (1993). See also, O'Reilly et al, Baculovirus Expression Vectors: A Laboratory Manual (W. H. Freeman and Co., New York, N.Y., 1992). See also, King et al., The Baculovirus Expression System: A Laboratory Guide (Chapman & Hall, London, England, 1992).
(§3) All MMPs were activated using 4-aminophenylmercuric acetate (“APMA”, Sigma Chemical, St. Louis, Mo.) or trypsin. MMP-9 also was activated using human recombinant MMP-3 (purified in Assignee's laboratory following standard cloning and purification techniques).
(§4) Two fluorogenic, methoxycoumarin-containing polypeptide substrates were used in the MMP inhibition assays:
(§5) MCA-ArgProLeuGlyLeuDpaAlaArgGluArgNH2 (II)
(§6) Here, “Dpa” is 3-(2,4-dinitrophenyl)-L-2,3-diaminopropionyl group, and “MCA” is 7-methoxycoumarin-4-yl acetyl. Substrate (I) was purchased from Baychem (Redwood City, Calif.), and substrate II was prepared Assignee's laboratory. Substrate I was used in the IC50 determination assays, while substrate II was used in the Ki determination assays. In the absence of MMP inhibitory activity, either substrate is cleaved at the Gly-Leu peptide bond. This cleavage separates the highly fluorogenic peptide from the 2,4-dinitrophenyl quencher, thus resulting in increase of fluorescent intensity.
(§7) The stock solutions of the assayed hydroxamates (or salts thereof) were prepared in 1% dimethyl sulfoxide (DMSO). These stock solutions were diluted in Buffer A (100 mM Tris-HCl, 100 mM NaCl, 10 mM CaCl2, 0.05% polyoxyethylene 23 lauryl ether, pH 7.5) to obtain solutions with different hydroxamate concentrations, i.e., assay solutions with different concentrations of the assayed MMP inhibitory compound. The experiment controls contained the same amount of Buffer A/DMSO as the assayed sample, but contained no hydroxamate (or salt thereof).
(§8) The assays from which the Ki determinations were made were performed as follows. The assayed hydroxamate samples were incubated in separate wells of untreated white polystyrene plates (Nunc Nalgene International, Rochester, N.Y.), and analyzed on a Tecan SpectraFlour Plus plate reader. The excitation wavelength was 330 nm, and the emission wavelength—420 nm. All samples (assayed hydroxamates and controls) were incubated in separate plate wells at room temperature for 1 hr in the presence of 4 μM of MMP substrate (II). In the absence of MMP inhibitory activity, substrate II was cleaved at the Gly-Leu bond resulting in an increase of relative fluorescence. Inhibition was observed as a reduced rate of this increase in relative fluorescence. The various hydroxamates were analyzed using a single low enzyme concentration with a single substrate concentration fixed at or below the Km. This protocol is a modification of method by Knight et al., FEBS Lett., 296(3), 263-266 (1992). Apparent inhibitory constants were determined by non-linear regression of reaction velocity as a function of inhibitor and enzyme concentration using Morrison's equation, as described by Kuzmic, Anal. Biochem. 286, 45-50 (2000). […]

Human recombinant MMP-14 [1] = target: T2, Human recombinant MMP-14 (Homo sapiens, UniProt P50281); experiment: as above
T2 construct: The catalytic domain enzyme was expressed in E. coli inclusion bodies, solubilized in urea; made in house
Description: as §1, §2
The MMP-14 full length cDNA was provided by Dr. Gregory Goldberg of Washington University (St. Louis, Mo.). The catalytic domain enzyme was expressed in E. coli inclusion bodies, solubilized in urea, purified on a preparative […] reverse phase HPLC column, and then refolded in the presence of zinc acetate and purified for use.
as §3, §4, §5, §6, §7
as §8, with “(2000). Modifications were made in the non-linear regression method to allow a common control reaction rate and effective enzyme concentration to be shared between all dose-response relationships on a given assay plate.” for “(2000).”

Human recombinant MMP-14 [2] = target: T2, Human recombinant MMP-14; experiment: In vitro MMP inhibition, IC50 determination (fluorogenic substrate I)
In short: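 IC50 came from reduced fluorescence (ex 328 nm, em 415 nm) as inhibitor concentration rose, with 4 μM substrate I cleaved at Gly-Leu. Room-temperature incubation in pH 7.5 Tris buffer with 10 mM CaCl2; the E. coli-expressed, refolded MMP-14 catalytic domain was activated with trypsin or APMA.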

[3] = substrate (II) 4 μM, 1 hr room temperature, apparent Ki, values in parenthesis

SMILES	Ki (Human recombinant MMP-14 [1]; value in parenthesis)	Ki (Human recombinant MMP-13; value in parenthesis)	Ki (Human recombinant MMP-14 [1]; value in parentheses)	Ki (Human recombinant MMP-13; value in parentheses)	further results
O=C(NO)C1(S(=O)(=O)c2ccc(OCCCc3cccc(-c4ccc(F)cc4)c3)cc2)CCOCC1 [Example 39]	–	–	–	–	Ki (Human recombinant MMP-13; [3]): 3.04 nM; Ki (Human recombinant MMP-14 [1]; [3]): > 10000 nM
COCCN1CCC(C(=O)NO)(S(=O)(=O)c2ccc(OCCCc3cc(-c4ccc(F)cc4F)cs3)cc2)CC1 [Example 47, 4-[(4-{3-[4-(2,4-difluorophenyl)thien-2-l]propoxy}phenyl)sulfonyl]-N-hydroxy-1-(2-methoxyethyl)piperidine-4-carboxamide Hydrochloride]	–	–	–	–	Ki (Human recombinant MMP-13; [3]): 0.304 nM and 0.423 nM; Ki (Human recombinant MMP-14 [1]; [3]): 3320 nM and 5290 nM
COCCN1CCC(C(=O)NO)(S(=O)(=O)c2ccc(OCCCn3nnc(-c4ccc(OC(F)(F)F)cc4)n3)cc2)CC1 [Example 48]	–	–	–	–	IC50 (Human recombinant MMP-14 [2]; substrate (I) 4 μM, room temperature, values not in parenthesis): > 10000 nM; Ki (Human recombinant MMP-13; [3]): 0.127 nM
NC(=O)c1cccc(OCCOc2ccc(S(=O)(=O)C3(C(=O)NO)CCOCC3)cc2)c1 [Example 54]	–	–	–	–	Ki (Human recombinant MMP-14 [1]; [3]): 4120 nM
CC(C)C(=O)c1cccc(CCCOc2ccc(S(=O)(=O)C3(C(=O)NO)CCOCC3)cc2)c1 [Example 95]	5410 nM	–	–	–	IC50 (Human recombinant MMP-14 [2]; value outside parenthesis): > 10000 nM
O=C(NO)C1(S(=O)(=O)c2ccc(OCCCc3cccc(-c4ccco4)c3)cc2)CCOCC1 [Example 97]	> 10000 nM	5.57 nM	–	–	–
O=C1Nc2ccc(-c3noc(CCCOc4ccc(S(=O)(=O)C5(C(=O)NO)CCN(C6CC6)CC5)cc4)n3)cc21 [Example 142]	> 10000 nM	1.34 nM	–	–	–
O=C(NO)C1(S(=O)(=O)c2ccc(OCCCc3cccc(-c4ccc(OC(F)(F)F)cc4)c3)cc2)CCOCC1 [Example 147]	> 10000 nM	23.9 nM	–	–	–
O=C(NO)C1(S(=O)(=O)c2ccc(OCCCc3cccc(-c4ccccn4)c3)cc2)CCOCC1 [Example 148]	5150 nM	1.72 nM	–	–	–
O=C(NO)C1(S(=O)(=O)c2ccc(OCCCc3cccc(-c4ccncc4)c3)cc2)CCOCC1 [Example 149]	2530 nM	1.18 nM	–	–	–
CC(C)c1ccc(-c2cccc(CCCOc3ccc(S(=O)(=O)C4(C(=O)NO)CCOCC4)cc3)c2)cc1 [Example 160]	> 10000 nM	–	–	–	–
O=C(NO)C1(S(=O)(=O)c2ccc(OCCCc3cccc(-c4cccc(F)c4)c3)cc2)CCOCC1 [Example 161]	–	20.3 nM	–	–	IC50 (Human recombinant MMP-14 [2]; value outside parenthesis): > 10000 nM
O=C(NO)C1(S(=O)(=O)c2ccc(OCCCc3cccc(-c4ccccc4Cl)c3)cc2)CCOCC1 [Example 162]	> 10000 nM	12 nM	–	–	–
Cc1ccccc1-c1cccc(CCCOc2ccc(S(=O)(=O)C3(C(=O)NO)CCOCC3)cc2)c1 [Example 164]	> 10000 nM	6.85 nM	–	–	–
Cc1ccc(-c2cccc(CCCOc3ccc(S(=O)(=O)C4(C(=O)NO)CCOCC4)cc3)c2)cc1C [Example 165]	> 10000 nM	144 nM	–	–	–
O=C(NO)C1(S(=O)(=O)c2ccc(OCCCc3cncc(Br)c3)cc2)CCOCC1 [Example 522]	–	–	6290 nM	–	–
O=C(COc1ccc(S(=O)(=O)C2(C(=O)NO)CCOCC2)cc1)c1cccc(-c2ccccc2)c1 [Example 563]	–	–	4400 nM	0.7 nM	–
O=C(CCCOc1ccc(S(=O)(=O)C2(C(=O)NO)CCOCC2)cc1)Nc1cccc(I)c1 [Example 570]	–	–	1360 nM	0.142 nM	–
O=C(NO)C1(S(=O)(=O)c2ccc(OCCCc3cccc(-n4ccnc4)c3)cc2)CCOCC1 [Example 574]	–	–	5390 nM	1.32 nM	–
O=C(NO)C1(S(=O)(=O)c2ccc(OCCCc3nc(-c4cccnc4)no3)cc2)CCOCC1 [Example 578]	–	–	> 10000 nM	1.72 nM	–
O=C(NO)C1(S(=O)(=O)c2ccc(OCCCc3nc(-c4ccccc4)no3)cc2)CCOCC1 [Example 584]	–	–	6630 nM	0.944 nM	–
O=C(NCCOc1ccc(S(=O)(=O)C2(C(=O)NO)CCOCC2)cc1)c1cc2ccccc2[nH]1 [Example 599]	–	–	–	0.24 nM	IC50 (Human recombinant MMP-14 [2]; value outside parentheses): 57 nM
O=C(NO)C1(S(=O)(=O)c2ccc(OCCCc3cccc(-c4ccc(C(F)(F)F)cc4)c3)cc2)CCOCC1 [Example 625]	–	–	> 10000 nM	43.6 nM	–
O=C(NO)C1(S(=O)(=O)c2ccc(OCCCc3cccc(-c4ccc5c(c4)OCCO5)c3)cc2)CCOCC1 [Example 627]	–	–	> 10000 nM	40.9 nM	–
